US10640527B2, “Mesitylene-cored amphiphiles and uses thereof” (Industry-University Cooperation Foundation Hanyang …, priority 2016, dated 2020)

Experiments:
[1] = Hydrodynamic radius / size distribution of micelles by dynamic light scattering (DLS); format: physicochemical; details: 1.0 wt % amphiphile
Description: A method of measuring a radius of the micelle is not particularly limited, and those methods widely known in the related field may be used, for example, a dynamic light scattering (DLS) experiment may be used for measurement.
(§1) Specifically, a CMC was measured by a fluorophorescent encapsulation method using diphenylhexatriene (DPH) and an Rh of a micelle formed by each formulation (1.0 wt %) was measured using a dynamic light scattering (DLS) experiment.

[2] = molecular target: T1, uric acid-xanthine/H+ symporter (UapA) (Emericella nidulans, UniProt Q07307, G411V); assay: UapA structural (thermal) stability, CPM assay; format: biochemical, Aspergillus nidulans; details: for effect in maintaining folded UapA, ranking among MGAs: CMC+0.2 wt %, 40° C., 120 minutes
T1 construct: GFP; made in house; host or cells: Saccharomyces cerevisiae FGY217
T1 sequence (Q07307 12-574 G411V): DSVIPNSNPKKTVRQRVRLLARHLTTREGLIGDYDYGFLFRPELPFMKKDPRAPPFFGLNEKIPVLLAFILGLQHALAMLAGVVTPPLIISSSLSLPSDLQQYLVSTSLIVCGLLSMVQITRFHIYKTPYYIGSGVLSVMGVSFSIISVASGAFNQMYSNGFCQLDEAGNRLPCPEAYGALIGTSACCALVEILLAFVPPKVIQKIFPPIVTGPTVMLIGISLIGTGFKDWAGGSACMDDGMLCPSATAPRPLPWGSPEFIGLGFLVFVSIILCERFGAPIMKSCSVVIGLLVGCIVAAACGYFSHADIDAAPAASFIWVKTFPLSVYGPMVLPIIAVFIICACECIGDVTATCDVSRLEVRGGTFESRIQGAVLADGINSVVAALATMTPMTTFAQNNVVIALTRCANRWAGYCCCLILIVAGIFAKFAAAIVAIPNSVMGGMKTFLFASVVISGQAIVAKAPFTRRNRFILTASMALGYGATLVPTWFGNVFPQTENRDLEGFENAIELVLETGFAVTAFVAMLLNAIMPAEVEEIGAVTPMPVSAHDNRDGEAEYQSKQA
Description: An experiment for measuring the structural stability of uric acid-xanthine/H^+ symporter (UapA) solubilized in MGAs in an aqueous solution was performed. The structural stability of UapA was measured using a CPM assay, and was measured at MGAs and DDM concentrations of (a) CMC+0.04 wt %, or (b) CMC+0.2 wt %.
Specifically, a UapA protein is a uric acid-xanthine/H^+ symporter in Aspergillus nidulans. Protein stability was measured by fluorescence spectroscopy using N-[4-(7-diethylamino-4-methyl-3-coumarinyl)phenyl]maleimide (CPM) which is a sulfhydryl-specific fluorophore. A free sulfhydryl group of a cysteine residue is in the interior of a protein, but becomes accessible to a solvent upon protein unfolding. CPM becomes fluorescent by a reaction with the free thiol, and thus provides as a protein unfolding sensor. In order to measure thermal stability, first, UapAG411V1-11 was expressed in the Saccharomyces cerevisiae FGY217 strain by fusion with GFP, and separated in a sample buffer (20 mM Tris (pH 7.5), 150 mM NaCl, 0.03% DDM and 1 mM xanthine) according to a method described in a research article (Mol. Membr. Biol. 2013, 30, 32-42) by J. Leung et al. A UapA protein was concentrated to about 10 mg/ml using a 100 kDa molecular weight cut-off filter (Millipore). The concentrated protein was diluted to a ratio of 1:150 with each buffer including DDM or MGA (MGA-C10, MGA-C11, MGA-C12, MGA-C13, MGA-C14 or MGA-C15) at a concentration of CMC+0.04 wt % or CMC+0.2 wt % in a Greiner 96-well plate. A CPM dye (Invitrogen) stored in DMSO (Sigma) was diluted with a dye buffer (20 mM Tris (pH 7.5), 150 mM NaCl, 0.03% DDM and 5 mM EDTA), and 3 μl of the diluted dye was added to each protein sample. The reaction mixture was incubated at 40° C. for 120 minutes. Fluorescence emission was monitored using a microplate spectrofluorometer, with an excitation wavelength at 387 nm and an emission wavelength at 463 nm. Relative maximum fluorescence was used to calculate a percentage of relative folded protein remaining after 120 minutes at 40° C. Relative unfolded proteins were plotted against time using GraphPad Prism.
Specifically, a UapA stabilization effect was evaluated by the same method as in Experimental Example 2 using MGA-C13, MGA-C14, MNG-3 or DDM at a concentration of (a) CMC+0.04 wt % or (b) CMC+0.2 wt %.

[3] = Critical micelle concentration by fluorophore encapsulation using diphenylhexatriene (DPH); format: physicochemical; details: aqueous solution
Description: A method of measuring a CMC is not particularly limited, and those methods widely known in the related field may be used. For example, a CMC may be measured by a fluorophore encapsulation method using diphenylhexatriene (DPH).
as §1

[4] = system: leucine transporter (LeuT); assay: LeuT long-term stability, [3H]-Leu binding by scintillation proximity assay (SPA); format: biochemical, Aquifex aeolicus
Description: An experiment for measuring the structural stability of LeuT proteins according to MGAs (MGA-C11, MGA-C12, MGA-C13, MGA-C14 and MGA-C15) was performed. Each amphiphile was used at a concentration of (a) CMC+0.04 wt % or (b) CMC+0.2 wt %, a ligand-binding activity of LeuT was measured by scintillation proximity assay (SPA) using [^3H]-Leucine. The measurement was performed at regular intervals at room temperature during 12 days of incubation.
Specifically, a thermophilic bacteria Aquifex aeolicus-derived wild type LeuT was purified using a previously described method (Nature, G. Deckert et al., 1998, 392, 353-358). To sum up, the LeuT was expressed in E. coli C41 (DE3) cultured in a lysogeny broth medium supplemented with 0.1 mg/ml ampicillin. Expression of proteins was induced by adding isopropyl β-D-thiogalactopyranoside to a final concentration of 0.1 mM.
A cell membrane was separated from a crushed cell (Constant Systems Homogenizers, Kennesaw, Ga.), and solubilized in 1% (w/v) n-dodecyl-β-D-maltopyranoside (DDM; Affymetrix, Santa Clara, Calif.). After solubilization, LeuT was fixed in a Ni^2+-NTA resin (Life Technologies, Denmark), and eluted in 20 mM Tris-HCl (pH 7.5), 199 mM KCl, 1 mM NaCl, 0.05% (w/v) DDM and 300 mM imidazole. Thereafter, purified LeuT (about 1.5 mg/ml) was diluted tenfold with a buffer supplemented with MGA (MGA-C11, MGA-C12, MGA-C13, MGA-C14 or MGA-C15) or DDM to the final concentration of CMC+0.04% (w/v) or CMC+0.2% (w/v) while excluding DDM and imidazole from the above-described buffers. Protein samples were stored at room temperature for 12 days, and protein activity was determined by measuring [^3H]-Leu binding by SPA at a specified time. SPA was carried out using 450 mM NaCl and buffers containing each MGA, and a SPA reaction was performed in the presence of 20 nM [^3H]-Leu and 1.25 mg/ml copper chelate (His-Tag) YSi beads (Perkin Elmer, Denmark). [^3H]-Leu binding was measured using a MicroBeta liquid scintillation counter (Perkin Elmer).

[5] = molecular target: T2, melibiose permease (MelBSt) (Salmonella typhimurium, UniProt P30878); assay: MelBSt extraction from membranes and thermal stability, SDS-PAGE and Western blotting; format: biochemical; details: 1.5 wt %, 90 minutes
T2 construct: made in house; host or cells: DW2 cells (ΔmelB and ΔlacZY), Salmonella typhimurium DW2
T2 sequence (P30878 whole entry): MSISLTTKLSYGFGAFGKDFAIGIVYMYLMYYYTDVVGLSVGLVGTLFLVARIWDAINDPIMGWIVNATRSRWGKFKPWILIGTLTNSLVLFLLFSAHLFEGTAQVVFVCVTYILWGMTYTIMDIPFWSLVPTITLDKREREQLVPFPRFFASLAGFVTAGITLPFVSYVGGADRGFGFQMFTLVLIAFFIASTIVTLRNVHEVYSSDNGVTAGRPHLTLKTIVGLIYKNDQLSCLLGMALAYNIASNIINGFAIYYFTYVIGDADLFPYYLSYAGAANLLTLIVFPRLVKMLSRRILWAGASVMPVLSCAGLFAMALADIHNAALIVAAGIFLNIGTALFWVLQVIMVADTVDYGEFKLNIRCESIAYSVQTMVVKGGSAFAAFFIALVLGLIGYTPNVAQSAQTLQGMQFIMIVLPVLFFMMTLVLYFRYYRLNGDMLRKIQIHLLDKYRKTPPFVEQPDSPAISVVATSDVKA
Description: An experiment for measuring the structural stability of Salmonella typhimurium melibiose permease (MelBSt) according to MGAs in an aqueous solution was performed. After MelBSt proteins were extracted from a membrane using MGAs or DDM, the amount and structure of extracted proteins were analyzed by SDS-PAGE and western blotting. The concentration of used amphiphiles was 1.5 wt %, and proteins were extracted at four different temperatures of 0, 45, 55 and 65° C. to evaluate both the protein extraction efficiency and stabilizing ability of a compound. A membrane sample which had not been treated with MGAs or DDM was used as a control group.
Specifically, MelBSt stability solubilized in DDM or MGAs was evaluated according to a method described in 2010 in a research article (P. S. Chae et al., Nat. Methods 2010, 7, 1003-1008.) by the inventors of the present invention. Proteins (MelBSt) were produced using plasmid pK95ΔAHB/WT MelBSt/CH10 encoding the wild-type MelB with a 6-His tag at the C-terminus and Salmonella typhimurium DW2 cells (ΔmelB and ΔlacZY). Cell growth and membrane preparation was performed according to a method described in a research article (Nat. Commun. 2014, 5, 3009) by A. S. Ethayathulla, et al. A protein assay was carried out using a Micro BCA kit (Thermo Scientific, Rockford, Ill.). In order to measure protein solubilization, a membrane sample (final protein concentration was 10 mg/mL) containing MelBSt was incubated with a solubilization buffer (20 mM sodium phosphate, pH 7.5, 200 mM NaCl, 10% glycerol and 20 mM melibiose) and 1.5% (w/v) DDM or MGA (MGA-C10, MGA-C11, MGA-C12, MGA-C13, MGA-C14 or MGA-C15) at four different temperatures of 0, 45, 55 and 65° C. for 90 minutes. After ultracentrifugation at 355,590 g in a Beckman Optima™ MAX Ultracentrifuge using a TLA-100 rotor for 45 min at 4° C., 20 μg of a protein was separated by SDS-16% PAGE and immunoblotted with a Penta-His-HRP antibody (Qiagen, Germantown, Md.). MelBSt was measured by an ImageQuant LAS 4000 Biomolecular Imager (GE Healthcare Life Sciences) using a SuperSignal West Pico chemiluminescent substrate.

SMILES | Rh (nm), hydrodynamic radius of micelle [1] [nm] | effect in maintaining folded UapA, ranking among MGAs [2] | CMC [3] [µM] | CMC (wt %) [3] [wt %] | preservation of long-term stability of LeuT, comparison with DDM and ranking ([4]; 12 days at room temperature, CMC+0.04 wt % or CMC+0.2 wt %) | LeuT ligand-binding activity retained, % of initial activity ([4]; after 12 days of incubation at room temperature) [%] | MelBSt protein extraction efficiency compared with DDM ([5]; 45° C.) | MelBSt extraction ability compared with DDM ([5]; 55° C.) | UapA stabilization effect compared with MNG-3 ([2]; CMC+0.04 wt % or CMC+0.2 wt %, FIG. 25)
CCCCCCCCCCC(CO[C@@H]1OC(CO)[C@@H](O)C(O)C1O)(CO[C@@H]1OC(CO)[C@@H](O)C(O)C1O)Cc1cc(CC(CCCCCCCCCC)(CO[C@@H]2OC(CO)[C@@H](O)C(O)C2O)CO[C@@H]2OC(CO)[C@@H](O)C(O)C2O)cc(CC(CCCCCCCCCC)(CO[C@@H]2OC(CO)[C@@H](O)C(O)C2O)CO[C@@H]2OC(CO)[C@@H](O)C(O)C2O)c1 (stereo partly drawn) [MGA-C10] | 2.9 ± 0.01 | less effective than the above-described MGAs, but still higher than DDM | ~8 | ~0.0014 | – | – | – | – | –
CCCCCCCCCCCC(CO[C@@H]1OC(CO)[C@@H](O)C(O)C1O)(CO[C@@H]1OC(CO)[C@@H](O)C(O)C1O)Cc1cc(CC(CCCCCCCCCCC)(CO[C@@H]2OC(CO)[C@@H](O)C(O)C2O)CO[C@@H]2OC(CO)[C@@H](O)C(O)C2O)cc(CC(CCCCCCCCCCC)(CO[C@@H]2OC(CO)[C@@H](O)C(O)C2O)CO[C@@H]2OC(CO)[C@@H](O)C(O)C2O)c1 (stereo partly drawn) [MGA-C11] | 3.0 ± 0.04 | less effective than the above-described MGAs, but still higher than DDM | ~5 | ~0.009 | the most excellent MGA | ~90 | – | – | –
CCCCCCCCCCCCCCC(CO[C@@H]1OC(CO)[C@@H](O)C(O)C1O)(CO[C@@H]1OC(CO)[C@@H](O)C(O)C1O)Cc1cc(CC(CCCCCCCCCCCCCC)(CO[C@@H]2OC(CO)[C@@H](O)C(O)C2O)CO[C@@H]2OC(CO)[C@@H](O)C(O)C2O)cc(CC(CCCCCCCCCCCCCC)(CO[C@@H]2OC(CO)[C@@H](O)C(O)C2O)CO[C@@H]2OC(CO)[C@@H](O)C(O)C2O)c1 (stereo partly drawn) [MGA-C14] | 3.4 ± 0.04 | had the highest effect | ~2 | ~0.0004 | – | – | same level of protein extraction efficiency as DDM | higher MelBSt extraction ability than DDM | far greater UapA stabilization effect than MNG-3
CCCCCCCCCCCCC(CO[C@@H]1OC(CO)[C@@H](O)C(O)C1O)(CO[C@@H]1OC(CO)[C@@H](O)C(O)C1O)Cc1cc(CC(CCCCCCCCCCCC)(CO[C@@H]2OC(CO)[C@@H](O)C(O)C2O)CO[C@@H]2OC(CO)[C@@H](O)C(O)C2O)cc(CC(CCCCCCCCCCCC)(CO[C@@H]2OC(CO)[C@@H](O)C(O)C2O)CO[C@@H]2OC(CO)[C@@H](O)C(O)C2O)c1 (stereo partly drawn) [MGA-C12] | 3.1 ± 0.03 | less effective than the above-described MGAs, but still higher than DDM | ~3.5 | ~0.0006 | – | – | – | – | –
